Tests used:
Assay in all cases: MTT assay: in vitro inhibition of growth by deuterium oxide
Type in all cases: cell-based, human
[1] = test system: HeLa cervical cancer cell line
Protocol: (§1) Studies of in vitro inhibition of growth of human tumor cells by deuterium oxide, by the MTT (3-(4,5-dimethylthiazol-2-yl)-2,5-diphenyltetrazolium bromide) assay
(§2) 1. A bottle of cells that had been cultured for 3 to 4 days and were in the exponential phase was taken, a suitable amount of 0.25% Trypsin-EDTA solution was added thereto to detach the cells from the wall, and the cells were suspended in 10 ml RPMI 1640 medium containing 10% FBS. 2. The cells were counted on a hemocytometer, and generally viable cells should be not less than 97%. 3. The cell suspension was diluted with a complete medium to prepare a suspension containing 1×10^4 cells/ml. 4. To each well of a 12-well culture plate, 300 μl cell suspension was added. The addition of cells should be finished within 4 hours. The plate was placed in an incubator at 37° C. and 5% CO2 for 24 hours. 5. Powdery RPMI Medium 1640 (Gibco, USA, Cat#: 31800-022) was dissolved in deuterium oxide (provided by Cambridge Isotope Laboratories, Inc. (US)) to prepare a cell culture medium (unless particularly specified, all culture media used in the Examples hereinafter were prepared from powdery RPMI Medium 1640 and deuterium oxide) at a concentration shown in Table 1, which was added into the cell culture plate. 6. The cell culture plate was incubated for 3 days in an incubator at 37° C., 5% CO2 and 100% humidity. 7. A solution of 1 mg/ml MTT was prepared in a serum-free RPMI1640 medium, added to the plate at 200 μl/well, and incubated at 37° C. for 4 hours, to allow MTT to be reduced to formazan. 8. The supernatant was removed by pipetting, 200 μl DMSO was added to dissolve formazan, and the solution was well mixed on a platform shaker. 9. Absorbance of each well was measured on an ELISA reader with a detection wavelength of 570 nm and a reference wavelength of 450 nm. 10. The assay was repeated one more time.
(§3) Calculation of results: Inhibition of growth of tumor cells by deuterium oxide was calculated using tumor cells treated with sodium chloride physiological solution as a control group. Inhibition of cell growth was plotted against amounts of deuterium oxide to obtain a dose response curve, from which the half maximal inhibitory concentration (IC50) of deuterium oxide was derived.
(§4) Inhibition of tumor cell growth (%)=(1−OD test/OD control)×100%

[2] = test system: MCF-7 breast cancer cell line
Protocol: as §1, §2, §3, §4

[3] = test system: ASPC-1 pancreatic cancer cell line
Protocol: as §1, §2, §3, §4

[4] = test system: SF767 brain cancer cell line
Protocol: as §1, §2, §3, §4

[5] = test system: CFPAC-1 pancreatic cancer cell line
Protocol: as §1, §2, §3, §4

[6] = test system: 5637 bladder cancer cell line
Protocol: as §1, §2, §3, §4

[7] = test system: NCI-1975 lung cancer cell line
Protocol: as §1, §2, §3, §4

[8] = test system: NCI-H460 lung cancer cell line
Protocol: as §1, §2, §3, §4

SMILES: [2H]O[2H] [Deuterium oxide]
- Inhibition of growth (%) ([1]; deuterium oxide 1.2% (v/v)): 12.11%
- Inhibition of growth (%) ([1]; deuterium oxide 2.5% (v/v)): 14.44%
- Inhibition of growth (%) ([1]; deuterium oxide 5% (v/v)): 16.25%
- Inhibition of growth (%) ([1]; deuterium oxide 10% (v/v)): 28.87%
- Inhibition of growth (%) ([1]; deuterium oxide 20% (v/v)): 36.12%
- Inhibition of growth (%) ([1]; deuterium oxide 30% (v/v)): 45.41%
- Inhibition of growth (%) ([1]; deuterium oxide 40% (v/v)): 58.26%
- Inhibition of growth (%) ([1]; deuterium oxide 50% (v/v)): 65.63%
- Inhibition of growth (%) ([1]; deuterium oxide 60% (v/v)): 73.32%
- Inhibition of growth (%) ([1]; deuterium oxide 70% (v/v)): 85.82%
- Inhibition of growth (%) ([1]; deuterium oxide 80% (v/v)): 90.11%
- IC10 ([1]; expressed in v/v %): 1.8%
- IC50 ([1]; expressed in v/v %): 68.33%
- Inhibition of growth (%) ([2]; deuterium oxide 1.2% (v/v)): 9.78%
- Inhibition of growth (%) ([2]; deuterium oxide 2.5% (v/v)): 11.04%
- Inhibition of growth (%) ([2]; deuterium oxide 5% (v/v)): 15.71%
- Inhibition of growth (%) ([2]; deuterium oxide 10% (v/v)): 22.47%
- Inhibition of growth (%) ([2]; deuterium oxide 20% (v/v)): 31.60%
- Inhibition of growth (%) ([2]; deuterium oxide 30% (v/v)): 40.38%
- Inhibition of growth (%) ([2]; deuterium oxide 40% (v/v)): 52.45%
- Inhibition of growth (%) ([2]; deuterium oxide 50% (v/v)): 63.22%
- Inhibition of growth (%) ([2]; deuterium oxide 60% (v/v)): 86.41%
- Inhibition of growth (%) ([2]; deuterium oxide 70% (v/v)): 89.06%
- Inhibition of growth (%) ([2]; deuterium oxide 80% (v/v)): 98.08%
- IC10 ([2]; expressed in v/v %): 3.28%
- IC50 ([2]; expressed in v/v %): 61.29%
- Inhibition of growth (%) ([3]; deuterium oxide 1.2% (v/v)): 0.64%
- Inhibition of growth (%) ([3]; deuterium oxide 2.5% (v/v)): 6.35%
- Inhibition of growth (%) ([3]; deuterium oxide 5% (v/v)): −0.20%
- Inhibition of growth (%) ([3]; deuterium oxide 10% (v/v)): −4.88%
- Inhibition of growth (%) ([3]; deuterium oxide 20% (v/v)): −7.26%
- Inhibition of growth (%) ([3]; deuterium oxide 30% (v/v)): 9.70%
- Inhibition of growth (%) ([3]; deuterium oxide 40% (v/v)): 23.99%
- Inhibition of growth (%) ([3]; deuterium oxide 50% (v/v)): 44.14%
- Inhibition of growth (%) ([3]; deuterium oxide 60% (v/v)): 52.22%
- Inhibition of growth (%) ([3]; deuterium oxide 70% (v/v)): 70.14%
- Inhibition of growth (%) ([3]; deuterium oxide 80% (v/v)): 85.83%
- IC10 ([3]; expressed in v/v %): 11.80%
- IC50 ([3]; expressed in v/v %): 57.00%
- Inhibition of growth (%) ([4]; deuterium oxide 1.2% (v/v)): 4.76%
- Inhibition of growth (%) ([4]; deuterium oxide 2.5% (v/v)): 3.94%
- Inhibition of growth (%) ([4]; deuterium oxide 5% (v/v)): −4.41%
- Inhibition of growth (%) ([4]; deuterium oxide 10% (v/v)): −8.43%
- Inhibition of growth (%) ([4]; deuterium oxide 20% (v/v)): 7.66%
- Inhibition of growth (%) ([4]; deuterium oxide 30% (v/v)): 8.42%
- Inhibition of growth (%) ([4]; deuterium oxide 40% (v/v)): 16.50%
- Inhibition of growth (%) ([4]; deuterium oxide 50% (v/v)): 21.23%
- Inhibition of growth (%) ([4]; deuterium oxide 70% (v/v)): 49.65%
- Inhibition of growth (%) ([4]; deuterium oxide 80% (v/v)): 71.22%
- IC10 ([4]; expressed in v/v %): 31.85%
- IC50 ([4]; expressed in v/v %): 91.12%
- Inhibition of growth (%) ([5]; deuterium oxide 1.2% (v/v)): 6.82%
- Inhibition of growth (%) ([5]; deuterium oxide 2.5% (v/v)): 14.05%
- Inhibition of growth (%) ([5]; deuterium oxide 5% (v/v)): 13.42%
- Inhibition of growth (%) ([5]; deuterium oxide 10% (v/v)): 10.75%
- Inhibition of growth (%) ([5]; deuterium oxide 20% (v/v)): 14.84%
- Inhibition of growth (%) ([5]; deuterium oxide 30% (v/v)): 26.16%
- Inhibition of growth (%) ([5]; deuterium oxide 40% (v/v)): 33.67%
- Inhibition of growth (%) ([5]; deuterium oxide 50% (v/v)): 45.30%
- Inhibition of growth (%) ([5]; deuterium oxide 60% (v/v)): 61.42%
- Inhibition of growth (%) ([5]; deuterium oxide 70% (v/v)): 77.94%
- Inhibition of growth (%) ([5]; deuterium oxide 80% (v/v)): 91.85%
- IC10 ([5]; expressed in v/v %): 3.20%
- IC50 ([5]; expressed in v/v %): 59.43%
- Inhibition of growth (%) ([6]; deuterium oxide 1.2% (v/v)): 0.84%
- Inhibition of growth (%) ([6]; deuterium oxide 2.5% (v/v)): −3.09%
- Inhibition of growth (%) ([6]; deuterium oxide 5% (v/v)): 10.44%
- Inhibition of growth (%) ([6]; deuterium oxide 10% (v/v)): 16.15%
- Inhibition of growth (%) ([6]; deuterium oxide 20% (v/v)): 25.56%
- Inhibition of growth (%) ([6]; deuterium oxide 30% (v/v)): 36.69%
- Inhibition of growth (%) ([6]; deuterium oxide 40% (v/v)): 44.32%
- Inhibition of growth (%) ([6]; deuterium oxide 50% (v/v)): 52.11%
- Inhibition of growth (%) ([6]; deuterium oxide 60% (v/v)): 59.76%
- Inhibition of growth (%) ([6]; deuterium oxide 70% (v/v)): 74.86%
- Inhibition of growth (%) ([6]; deuterium oxide 80% (v/v)): 88.43%
- IC10 ([6]; expressed in v/v %): 4.46%
- IC50 ([6]; expressed in v/v %): 59.08%
- Inhibition of growth (%) ([7]; deuterium oxide 1.2% (v/v)): 0.84%
- Inhibition of growth (%) ([7]; deuterium oxide 2.5% (v/v)): −8.29%
- Inhibition of growth (%) ([7]; deuterium oxide 5% (v/v)): −7.44%
- Inhibition of growth (%) ([7]; deuterium oxide 10% (v/v)): −4.95%
- Inhibition of growth (%) ([7]; deuterium oxide 20% (v/v)): 5.60%
- Inhibition of growth (%) ([7]; deuterium oxide 30% (v/v)): 6.66%
- Inhibition of growth (%) ([7]; deuterium oxide 40% (v/v)): 24.03%
- Inhibition of growth (%) ([7]; deuterium oxide 50% (v/v)): 39.10%
- Inhibition of growth (%) ([7]; deuterium oxide 60% (v/v)): 51.93%
- Inhibition of growth (%) ([7]; deuterium oxide 70% (v/v)): 79.65%
- Inhibition of growth (%) ([7]; deuterium oxide 80% (v/v)): 87.23%
- IC10 ([7]; expressed in v/v %): 27.00%
- IC50 ([7]; expressed in v/v %): 62.61%
- Inhibition of growth (%) ([8]; deuterium oxide 1.2% (v/v)): 1.15%
- Inhibition of growth (%) ([8]; deuterium oxide 2.5% (v/v)): 9.40%
- Inhibition of growth (%) ([8]; deuterium oxide 5% (v/v)): 11.27%
- Inhibition of growth (%) ([8]; deuterium oxide 10% (v/v)): 9.47%
- Inhibition of growth (%) ([8]; deuterium oxide 20% (v/v)): 11.60%
- Inhibition of growth (%) ([8]; deuterium oxide 30% (v/v)): 30.58%
- Inhibition of growth (%) ([8]; deuterium oxide 40% (v/v)): 42.05%
- Inhibition of growth (%) ([8]; deuterium oxide 50% (v/v)): 53.09%
- Inhibition of growth (%) ([8]; deuterium oxide 60% (v/v)): 69.50%
- Inhibition of growth (%) ([8]; deuterium oxide 70% (v/v)): 82.33%
- Inhibition of growth (%) ([8]; deuterium oxide 80% (v/v)): 98.06%
- IC10 ([8]; expressed in v/v %): 5.60%
- IC50 ([8]; expressed in v/v %): 48.75%
